Where two headings read alike, the source gives them in different places. Marks after values point to notes of the source that are not given here.
Assays:
[1] = Conversion (release) of prodrug salts to parent compound in HEPES buffer pH 7.4; type: in vitro ADME; conditions: for degraded at 1 h / degraded at 2 h / degraded at 4 h / degraded at 8 h / degraded at 12 h: hepes buffer, pH 7.4, HEPES pH 7.4, 37 °C; for Release rate (conversion to Compound 1): HEPES pH 7.4, 37 °C
In short: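 Salt dissolved in water, mixed 1:1 with HEPES solution pH 7.4 (NaCl, KCl, Na2HPO4, glucose) and held at 37° C. At 1, 2, 4, 8 and 12 h, samples were methanol-quenched, centrifuged and analysed by reversed-phase HPLC at 210 nm, with peak areas recorded for conversion to parent compound.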

[2] = tested on: T cells / MDSCs; test: Promotion of T cell proliferation in a co-culture model of MDSCs and T cells; type: cell-based, mouse; conditions: for activation at 1 µM: Mus musculus, T-cell, 12 h
In short: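 Bone-marrow MDSCs, after compound treatment, were co-cultured 48 h at 1:1 with CFDA-SE-labelled (10 μM solution), activated splenic T cells. Proliferation of CD3+ T cells was read by flow cytometry.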

[3] = tested on: H22 cells; test: Antitumor effect in H22 mouse hepatocellular carcinoma subcutaneous xenograft model; type: in vivo, BALB/c mice; conditions: for Tumor Suppression Rate (%) / Tumor weight: 40 μmol/kg/day, H22 xenograft
[4] = tested on: T cells; test: Proportion of T cells in tumor and spleen of H22 xenograft mice (flow cytometry); type: in vivo, BALB/c mice; conditions: for Spleen T cells (%) / Tumor T cells (%): 40 μmol/kg/day, oral, 2 weeks, flow cytometry
Procedure: Once all tumors were dissected, nail-sized tumor pieces were transferred to 1.5 mL Eppendorf tubes and minced with scissors. Transfer the minced tumor tissue suspension to a 15 mL centrifuge tube containing 3-5 mL of digestive enzymes (Collagenase IV 1 mg/mL, Hyaluronidase 1 mg/mL, DNase 120 U/mL). Incubate at 37° C. on a shaking incubator at 200 rpm for 1 hour. After digestion, pass the mixture through a 200-mesh sieve to obtain the tumor cell suspension. Centrifuge the resulting tumor suspension at 1600 rpm for 5 min, aspirate the supernatant, resuspend cells in 1 mL of 1×PBS per tube. Transfer the cell suspension to a 1.5 mL Eppendorf tube, centrifuge at 1600 rpm for 5 min, remove the supernatant, resuspend cells in 100 μL of 1×PBS per tube, add 1 μL of dead/live dye to each tube, mix thoroughly, and incubate at room temperature in the dark for 15 min. […] Position the spleen on a 200-mesh cell strainer. Gently press the spleen using a 10 mL syringe needle. […] Transfer the splenocyte suspension into a 15 mL centrifuge tube. Centrifuge at 1600 rpm for 5 min to collect cells. Wash once with 1×PBS. Add 3 mL red blood cell lysis buffer (diluted with ddH2O) to each tube and incubate for 5 min. After lysis, add 10 mL 1×PBS to each tube to terminate lysis. Centrifuge at 1600 rpm for 5 min. Add 1 mL 1×PBS to each 15 mL centrifuge tube, transfer to 1.5 mL EP tubes, and centrifuge at 1600 rpm for 5 min. Add 1×PBS to each tube containing stained tumor cells and lysed spleen cells for one wash, centrifuge at 1600 rpm for 5 min, and remove the supernatant. Resuspend tumor cells and spleen cells separately in 100 μL 1×PBS. Add 1 μL FcX™ antibody to each tube and incubate at room temperature in the dark for 10 min. After incubation, sequentially add 1 μL each of CD45, CD3, and CD8 antibodies to each tube. Incubate at 4° C. in the dark for 30 min. After staining, wash once with 1 mL PBS. Centrifuge at 1600 rpm for 5 min. Discard the supernatant. Resuspend cells in 300 μL 1×PBS. Filter the cell suspension into a flow cytometry tube and proceed to instrument analysis.

[5] = tested on: CT26 cells; test: Antitumor effect in CT26 colon cancer mouse subcutaneous model; type: in vivo, BALB/c mice; conditions: for Tumor inhibition rate (%) / Tumor weight: 80 μmol/kg/day, CT26
[6] = tested on: 4T1 cells; test: Antitumor effect in 4T1 mouse mammary carcinoma xenograft model; type: in vivo, BALB/c mice; conditions: for Tumor inhibition rate (%) / Tumor weight: 40 μmol/kg/day, 4T1
Procedure: 4T1 cells were cultured and expanded in vitro. […] A 100 μL aliquot of this suspension was injected subcutaneously into the left forelimb axilla of female BALB/c mice. […] Daily oral administration was performed for 3 weeks. During the treatment period, mouse body weight and tumor diameter were measured daily. At the end of the experiment, mice were euthanized by cervical dislocation, and tumors were removed for weighing. Tumor volume (TV) was calculated using the formula: TV=½×a×b^2, where a represents the longest diameter of the tumor and b represents the shortest diameter.

[7] = compared with solvent control, result in words

Compound | Tumor Suppression Rate (%) ([3]; oral, 2 weeks) | Tumor weight ([3]; oral, 2 weeks) | tumor-inhibiting effect, H22 ([3]; oral, 2 weeks, result in words) | Spleen T cells (%) [4] | Tumor T cells (%) [4] | proportion of T cells in tumor tissues and spleens [4, 7] | Tumor inhibition rate (%) ([5]; oral, 3 weeks) | Tumor weight ([5]; oral, 3 weeks) | tumor-inhibiting effect, CT26 ([5]; oral, 3 weeks, result in words) | antitumor effect, 4T1 ([6]; oral, 3 weeks, result in words) | Release rate (conversion to Compound 1) ([1]; 1 h, 60 min) | Release rate (conversion to Compound 1) ([1]; 2 h, 120 min) | Release rate (conversion to Compound 1) ([1]; 4 h, 240 min) | Release rate (conversion to Compound 1) ([1]; 8 h, 480 min) | Release rate (conversion to Compound 1) ([1]; 12 h, 720 min) | Tumor inhibition rate (%) ([6]; oral, 3 weeks) | Tumor weight ([6]; oral, 3 weeks) | other results
CC1=C2CC[C@@](C)(OC(=O)N3CCCC3)[C@@H]2[C@H]2OC(=O)[C@@H](CN3CCCC3)[C@@H]2CC1 [Compound 103] | 60.34% | 5.02 ± 0.48 g | tumor-inhibiting effects | 34.22 ± 4.88 % | 27.62 ± 5.12 % | significantly increased | 39.72%* | 4.86 ± 0.72 g | tumor-inhibiting effects | no significant antitumor effects |  |  |  |  |  |  |  | degraded at 1 h ([1]; 1 h, read-out: Release rate (conversion to Compound 82)): 6.4%; degraded at 2 h ([1]; 2 h, read-out: Release rate (conversion to Compound 82)): 14.2%; degraded at 4 h ([1]; 4 h, read-out: Release rate (conversion to Compound 82)): 26%; degraded at 8 h ([1]; 8 h, read-out: Release rate (conversion to Compound 82)): 45.6%; degraded at 12 h ([1]; 12 h, read-out: Release rate (conversion to Compound 82)): 52.6%; activation at 1 µM ([2]; read-out: T-cell proliferation rate (%), 1 μM, MDSCs treated 12 hours, co-culture of MDSCs and T cells, compared to the control group): 20 to 40%
CN(C)C[C@@H]1C(=O)O[C@H]2[C@H]1CC[C@@]1(C)C[C@]13CC[C@@](C)(O)[C@H]23 [Compound 21] |  |  |  |  |  |  |  |  |  |  | 3.3% | 10.2% | 18.1% | 38.9% | 51.9% |  |  | T-cell proliferation rate (%) ([2]; 1 μM, MDSCs treated 12 hours, co-culture of MDSCs and T cells, compared to the control group): + (T-cell proliferation rate within the 0-20% range compared to the control group)
C=C1C(=O)O[C@@H]2[C@H]3C(C)=CC[C@@]34O[C@@]4(C)CC[C@@H]12 [Arg, Arglabin, reference compound] |  |  |  |  |  |  |  |  |  |  |  |  |  |  |  |  |  | activation at 1 µM ([2]; read-out: T-cell proliferation rate (%)): > 40%; tumor-inhibiting effect, H22 ([3]; mouse, in vivo, po): tumor-inhibiting effects; proportion of T cells in tumor tissues and spleens ([4]; mouse, in vivo): significantly increased; tumor-inhibiting effect, CT26 ([5]; mouse, in vivo, po): tumor-inhibiting effects; antitumor effect, 4T1 ([6]; mouse, in vivo, po): no significant antitumor effects
CN(C)C[C@@H]1C(=O)O[C@H]2[C@H]1CC[C@@]1(C)C[C@]13CC[C@@](C)(O)[C@H]23 [Compound 20] | 70.86% | 4.88 ± 0.87 g | tumor-inhibiting effects | 37.19 ± 6.99 % | 29.44 ± 6.07 % | significantly increased | 43.36%* | 4.62 ± 1.29 g | tumor-inhibiting effects | no significant antitumor effects | 6.2% | 13.8% | 21.7% | 44.3% | 59.1% | −15.24% | 2.09 ± 0.60 g | 
CC1=C2CC[C@@](C)(OC(=O)N3CCCCC3)[C@@H]2[C@H]2OC(=O)[C@@H](CN(C)C)[C@@H]2CC1 [Compound 102] | 27.99% | 6.13 ± 1.48 g | tumor-inhibiting effects | 31.69 ± 6.44 % | 20.86 ± 4.15 % | significantly increased |  |  |  | no significant antitumor effects |  |  |  |  |  | −20.37% | 2.18 ± 1.34 g | degraded at 1 h ([1]; 1 h, read-out: Release rate (conversion to Compound 83)): 6.8%; degraded at 2 h ([1]; 2 h, read-out: Release rate (conversion to Compound 83)): 14.6%; degraded at 4 h ([1]; 4 h, read-out: Release rate (conversion to Compound 83)): 24.8%; degraded at 8 h ([1]; 8 h, read-out: Release rate (conversion to Compound 83)): 43%; degraded at 12 h ([1]; 12 h, read-out: Release rate (conversion to Compound 83)): 51.8%
